Values quoted from earlier work, collected in patent publication US8710097B2, “Flavonoid dimers and methods of making and using such” (The Hong Kong Polytechnic University, priority 2006, dated 2014).

System: Ltrmdr1
Details: literature; cited from earlier work

COc1ccc(-c2oc3c(CC=C(C)C)c(O)cc(O)c3c(=O)c2O)cc1 [8-dimethylallylkaempferide]
modulation (inhibition of Ltrmdr1) compared with cyclosporine A or verapamil: better modulator than either cyclosporine A or verapamil
